Activity calls are given as the source filed them.
Experiments:
[1] = target: T1, Tyrosine-protein phosphatase non-receptor type 7 (Homo sapiens, UniProt P35236); assay: inhibition of hematopoietic tyrosine phosphatase HePTP – biochemical, set 2, SAR follow-up (AID 449736); format: functional
T1 sequence (P35236 whole entry): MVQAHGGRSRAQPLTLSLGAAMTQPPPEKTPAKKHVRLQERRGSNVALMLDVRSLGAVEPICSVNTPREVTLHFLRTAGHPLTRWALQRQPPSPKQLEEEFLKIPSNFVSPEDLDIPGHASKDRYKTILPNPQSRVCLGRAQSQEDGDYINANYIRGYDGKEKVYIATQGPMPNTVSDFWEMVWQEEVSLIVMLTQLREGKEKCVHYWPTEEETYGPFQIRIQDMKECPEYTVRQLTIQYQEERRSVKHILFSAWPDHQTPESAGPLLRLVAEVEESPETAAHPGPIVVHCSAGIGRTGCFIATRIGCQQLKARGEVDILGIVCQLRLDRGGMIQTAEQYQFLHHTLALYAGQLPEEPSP

[2] = target: T2, G-protein coupled receptor 55 (Homo sapiens, UniProt Q9Y2T6); assay: selective activators of receptor GPR55 – imaging, U2OS cells, beta-arrestin-GFP redistribution, primary screen (AID 1961); format: functional
[3] = target: T3, Cannabinoid receptor 2 (Homo sapiens, UniProt P34972); assay: SAR analysis of antagonists of the Cannabinoid Receptor 2 using an Image-Based Assay - Set 2. [Related pubchem assays (depositor defined):AID1961, AID1965]; format: functional
[4] = target: T3, Cannabinoid receptor 2; assay: SAR analysis of agonists of the Cannabinoid Receptor 2 using an Image-Based Assay - Set 2. [Related pubchem assays (depositor defined):AID1961, AID1965]; format: functional
[5] = target: T1, Tyrosine-protein phosphatase non-receptor type 7; assay: SAR analysis of chemical inhibitors of HePTP using a Fluorescent assay - Set 2. [Related pubchem assays (depositor defined):AID1059, AID1077, AID1661, AID2085, AID521]; format: functional
[6] = target: T2, G-protein coupled receptor 55; assay: SAR analysis of selective Agonists of GPR55 using an Image-Based Assay. [Related pubchem assays (depositor defined):AID1961, AID1965]; format: functional
[7] = target: Cannabinoid receptor 1 (Homo sapiens, UniProt P21554); assay: SAR analysis of antagonists of the Cannabinoid Receptor 1 using an Image-Based Assay. [Related pubchem assays (depositor defined):AID1961, AID1965]; format: functional
[8] = target: Dual specificity protein phosphatase 3 (Homo sapiens, UniProt P51452); assay: SAR VHR1 Fluorescent Assay for In Vitro dose response studies Set 2. [Related pubchem assays (depositor defined):AID1654, AID1661, AID1878]; format: functional
[9] = target: T4, Polyadenylate-binding protein 1 (Homo sapiens, UniProt P11940); assay: MLLE binding blockers, Cy5 peptide tracer – biochemical, fluorescence polarization, Cy5-PAM2 peptide, secondary, miRNA deadenylation inhibitor project, dose response (AID 602260); format: functional; settings: read-out: IC50_Mean
[10] = target: T4, Polyadenylate-binding protein 1; assay: MLLE domain peptide-binding blockers, IC50 – biochemical, fluorescence polarization, FITC-PAM2 peptide, dose response (AID 602259); format: functional; settings: read-out: IC50_Mean
[11] = target: T5, Runt-related transcription factor 1/Core-binding factor subunit beta (Homo sapiens, UniProt Q01196+Q13951); assay: disruptors of Runt domain/CBFb-SMMHC interaction – biochemical, FRET, Cerulean-Runt, Venus-CBFb-SMMHC, uHTS, […] (AID 1434); format: protein assay
[12] = HPDE-C7 pancreatic duct cell viability loss – fluorescence, HTS (AID 430); format: functional, cell-based; settings: Homo sapiens
[13] = target: T6, Estrogen receptor (Homo sapiens, UniProt P03372);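 further: potency for inhibiting coactivator peptide recruitment to the receptor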
T6 sequence (P03372 whole entry): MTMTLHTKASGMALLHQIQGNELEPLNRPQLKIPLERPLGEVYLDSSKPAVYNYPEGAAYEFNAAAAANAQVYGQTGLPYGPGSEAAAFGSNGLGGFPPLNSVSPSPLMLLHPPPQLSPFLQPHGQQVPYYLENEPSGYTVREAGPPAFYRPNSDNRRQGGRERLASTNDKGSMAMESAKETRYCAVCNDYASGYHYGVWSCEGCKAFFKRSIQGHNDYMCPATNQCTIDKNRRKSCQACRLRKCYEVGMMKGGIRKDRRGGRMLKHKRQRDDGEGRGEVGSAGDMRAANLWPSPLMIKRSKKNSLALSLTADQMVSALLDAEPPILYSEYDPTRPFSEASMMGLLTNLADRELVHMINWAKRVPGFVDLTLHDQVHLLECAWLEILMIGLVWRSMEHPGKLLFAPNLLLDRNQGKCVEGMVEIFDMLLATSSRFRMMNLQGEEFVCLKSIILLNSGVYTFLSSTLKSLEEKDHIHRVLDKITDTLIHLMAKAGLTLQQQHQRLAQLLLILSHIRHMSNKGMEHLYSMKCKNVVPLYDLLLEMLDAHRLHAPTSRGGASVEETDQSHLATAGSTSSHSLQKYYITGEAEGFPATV

[14] = target: T5, Runt-related transcription factor 1/Core-binding factor subunit beta; assay: Runt domain/CBFb-SMMHC interaction disruptors – biochemical, TR-FRET (AID 1438); format: protein assay
[15] = viability loss of HPDE-C7K cells – cell-based, fluorescence, HTS, primary screen (AID 431); format: functional; settings: Homo sapiens
[16] = target: T7, Mu-type opioid receptor (Homo sapiens, UniProt P35372); assay: mu opioid receptor activators, image-based, SAR follow-up (AID 2352); format: functional
[17] = target: T8, Delta-type opioid receptor (Homo sapiens, UniProt P41143); assay: DOR agonists, SAR follow-up, image-based (AID 2370); format: functional
[18] = target: T9, Kappa-type opioid receptor (Homo sapiens, UniProt P41145); assay: kappa opioid receptor blockers, image-based, SAR follow-up (AID 2348); format: functional
[19] = target: T7, Mu-type opioid receptor; assay: mu opioid receptor blockers – image-based, SAR follow-up (AID 2420); format: functional;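 further: compounds added before stimulation of receptor with agonist DAMGO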
[20] = target: T9, Kappa-type opioid receptor; assay: kappa opioid receptor activation potency – imaging, image-based, SAR follow-up (AID 2359); format: functional
[21] = target: T8, Delta-type opioid receptor; assay: delta opioid receptor blockers – image-based, SAR follow-up (AID 2357); format: functional
[22] = target: T9, Kappa-type opioid receptor; assay: kappa opioid receptor blockers, cell-based, luminescence, beta-arrestin, SAR follow-up (AID 2285); format: functional
[23] = target: Exodeoxyribonuclease V (Escherichia coli (strain K12), UniProt P04993+P07648+P08394); assay: RecBCD inhibition via phage-restricted bacterial growth – absorbance, V66 E. coli, mutant T4 phage, counter-screen for AddAB inhibitor project, dose response (AID 492957); format: functional, cell-based, Escherichia coli str. K-12 substr. MG1655
[24] = THP-1 cell cytotoxicity, dose response, cytotoxicity control for non-replicating M. tuberculosis project (AID 489025); format: functional
[25] = Luminescence Cell-Based Dose Retest to Confirm Inhibitors of Cancer Stem Cells. [Related pubchem assays (depositor defined):AID2717, AID2721]; format: functional; settings: Homo sapiens
[26] = HepG2 cell cytotoxicity, dose response, cytotoxicity control for non-replicating M. tuberculosis project (AID 489018); format: functional; settings: Mycobacterium tuberculosis
[27] = Vero E6 cell cytotoxicity, dose response, cytotoxicity control for non-replicating M. tuberculosis project, secondary assay (AID 492998); format: functional, VeroE6; settings: Vero C1008
[28] = Counterscreen for AddAB inhibitors: absorbance-based bacterial cell-based high throughput dose response assay for inhibitors of bacterial viability. [Related pubchem assays (depositor defined):AID435030, AID449728, AID449731, AID488942, AID488955, AID488956]; format: functional
[29] = cells; format: functional
[30] = target: Heat shock protein HSP 90-alpha (Homo sapiens, UniProt P07900); format: functional, organism-based
[31] = target: T10, Hexokinase HKDC1 (Homo sapiens, UniProt Q2TB90); assay: activation of HKDC1 glucose phosphorylation – biochemical, W721R variant, dose response (AID 504730); format: functional
T10 sequence (Q2TB90 whole entry): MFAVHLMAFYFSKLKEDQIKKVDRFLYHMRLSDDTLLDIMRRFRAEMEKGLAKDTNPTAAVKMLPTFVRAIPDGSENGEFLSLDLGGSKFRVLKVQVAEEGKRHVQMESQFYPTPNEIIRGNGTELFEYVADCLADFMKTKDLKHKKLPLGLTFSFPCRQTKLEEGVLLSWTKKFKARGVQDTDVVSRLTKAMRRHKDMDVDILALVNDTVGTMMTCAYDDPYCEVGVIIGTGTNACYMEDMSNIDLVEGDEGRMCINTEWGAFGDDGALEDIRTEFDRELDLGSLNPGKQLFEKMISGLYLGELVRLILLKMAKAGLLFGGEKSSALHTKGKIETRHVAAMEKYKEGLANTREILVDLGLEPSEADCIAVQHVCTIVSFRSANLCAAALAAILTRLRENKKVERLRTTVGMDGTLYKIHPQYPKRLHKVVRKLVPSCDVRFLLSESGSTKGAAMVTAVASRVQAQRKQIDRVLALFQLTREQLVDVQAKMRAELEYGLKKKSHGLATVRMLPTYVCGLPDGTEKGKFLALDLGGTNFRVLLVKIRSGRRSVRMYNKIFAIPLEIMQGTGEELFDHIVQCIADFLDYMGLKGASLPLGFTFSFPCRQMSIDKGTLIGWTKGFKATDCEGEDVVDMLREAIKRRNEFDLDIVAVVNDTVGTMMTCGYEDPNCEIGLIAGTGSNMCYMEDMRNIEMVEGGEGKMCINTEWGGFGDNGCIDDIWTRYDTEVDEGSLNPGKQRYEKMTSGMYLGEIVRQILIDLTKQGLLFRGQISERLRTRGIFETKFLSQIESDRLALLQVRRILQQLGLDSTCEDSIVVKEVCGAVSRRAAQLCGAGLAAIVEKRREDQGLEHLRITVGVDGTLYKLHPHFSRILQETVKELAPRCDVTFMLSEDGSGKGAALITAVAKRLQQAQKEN

[32] = viability loss in HeLa cells – cytotoxicity control for MgcRacGAP inhibitor project, dose response (AID 624300); format: functional
[33] = target: T11, Rac GTPase-activating protein 1 (Homo sapiens, UniProt Q9H0H5); assay: blockers of MgcRacGAP-driven Rac1 GTP hydrolysis – biochemical, ADP Hunter fluorescence, primary and confirmatory, confirmation (AID 624330); format: functional
T11 sequence (Q9H0H5 whole entry): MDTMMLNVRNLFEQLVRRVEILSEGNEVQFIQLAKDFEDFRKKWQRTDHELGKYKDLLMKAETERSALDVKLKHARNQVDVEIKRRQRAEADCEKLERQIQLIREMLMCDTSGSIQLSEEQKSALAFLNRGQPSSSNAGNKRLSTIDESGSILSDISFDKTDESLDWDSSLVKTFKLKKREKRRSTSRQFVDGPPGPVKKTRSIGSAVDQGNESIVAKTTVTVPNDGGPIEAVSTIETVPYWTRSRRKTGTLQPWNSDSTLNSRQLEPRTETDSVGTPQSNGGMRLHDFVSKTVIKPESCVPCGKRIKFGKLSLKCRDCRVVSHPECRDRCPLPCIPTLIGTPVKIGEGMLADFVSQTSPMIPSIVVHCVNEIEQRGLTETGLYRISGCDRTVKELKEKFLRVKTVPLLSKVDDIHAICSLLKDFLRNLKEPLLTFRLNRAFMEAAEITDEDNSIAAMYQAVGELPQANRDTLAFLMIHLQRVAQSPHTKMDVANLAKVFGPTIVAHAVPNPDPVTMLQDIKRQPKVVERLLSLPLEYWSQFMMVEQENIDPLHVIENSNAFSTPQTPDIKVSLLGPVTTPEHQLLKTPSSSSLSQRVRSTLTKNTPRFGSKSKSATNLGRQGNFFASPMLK

[34] = target: T12, DNA repair protein RAD52 homolog (Homo sapiens, UniProt P43351); format: functional, biochemical
T12 sequence (P43351 whole entry): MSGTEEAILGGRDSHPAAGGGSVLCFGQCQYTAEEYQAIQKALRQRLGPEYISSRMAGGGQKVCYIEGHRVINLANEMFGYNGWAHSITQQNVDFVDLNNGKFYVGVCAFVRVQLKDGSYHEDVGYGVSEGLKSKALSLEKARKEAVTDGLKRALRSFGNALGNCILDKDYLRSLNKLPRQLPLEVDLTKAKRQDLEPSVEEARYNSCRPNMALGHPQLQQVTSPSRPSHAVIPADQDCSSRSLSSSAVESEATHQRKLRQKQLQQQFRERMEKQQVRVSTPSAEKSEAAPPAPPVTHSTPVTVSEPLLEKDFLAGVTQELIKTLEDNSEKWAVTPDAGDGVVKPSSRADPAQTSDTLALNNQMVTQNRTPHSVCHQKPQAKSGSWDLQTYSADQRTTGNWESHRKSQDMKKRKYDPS

[35] = rescue of ΔF508 CFTR function, airway epithelium – human bronchial epithelial cells, plate reader, cherry-pick, two tests, dose response (AID 743267); format: functional, cell-based

T9 sequence (P41145 whole entry): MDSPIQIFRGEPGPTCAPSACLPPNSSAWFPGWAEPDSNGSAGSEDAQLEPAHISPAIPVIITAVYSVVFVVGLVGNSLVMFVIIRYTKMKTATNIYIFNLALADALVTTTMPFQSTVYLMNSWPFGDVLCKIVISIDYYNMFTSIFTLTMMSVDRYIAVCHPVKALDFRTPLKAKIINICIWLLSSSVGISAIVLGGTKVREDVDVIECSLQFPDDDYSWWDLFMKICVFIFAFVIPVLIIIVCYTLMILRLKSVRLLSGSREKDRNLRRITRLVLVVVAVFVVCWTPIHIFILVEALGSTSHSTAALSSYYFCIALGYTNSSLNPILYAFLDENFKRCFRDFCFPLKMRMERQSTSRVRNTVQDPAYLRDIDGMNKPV
T2 sequence (Q9Y2T6 whole entry): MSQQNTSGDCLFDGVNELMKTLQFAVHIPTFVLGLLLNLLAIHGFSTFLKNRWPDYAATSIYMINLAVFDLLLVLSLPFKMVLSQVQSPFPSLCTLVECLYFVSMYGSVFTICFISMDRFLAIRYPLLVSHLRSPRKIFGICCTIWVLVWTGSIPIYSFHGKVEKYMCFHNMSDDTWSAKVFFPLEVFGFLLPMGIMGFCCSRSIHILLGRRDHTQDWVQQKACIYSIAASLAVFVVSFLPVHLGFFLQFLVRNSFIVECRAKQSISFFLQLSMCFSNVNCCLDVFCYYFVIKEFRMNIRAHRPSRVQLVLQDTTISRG
T3 sequence (P34972 whole entry): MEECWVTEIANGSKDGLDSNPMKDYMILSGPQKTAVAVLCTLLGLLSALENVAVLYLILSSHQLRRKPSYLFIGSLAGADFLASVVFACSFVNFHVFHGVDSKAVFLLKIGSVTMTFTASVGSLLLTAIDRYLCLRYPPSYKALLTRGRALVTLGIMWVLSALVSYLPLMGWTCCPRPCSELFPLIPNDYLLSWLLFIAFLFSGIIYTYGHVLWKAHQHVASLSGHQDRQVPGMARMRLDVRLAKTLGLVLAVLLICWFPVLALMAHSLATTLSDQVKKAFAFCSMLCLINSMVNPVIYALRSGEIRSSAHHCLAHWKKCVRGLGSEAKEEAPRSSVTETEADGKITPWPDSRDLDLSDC
T7 sequence (P35372 whole entry): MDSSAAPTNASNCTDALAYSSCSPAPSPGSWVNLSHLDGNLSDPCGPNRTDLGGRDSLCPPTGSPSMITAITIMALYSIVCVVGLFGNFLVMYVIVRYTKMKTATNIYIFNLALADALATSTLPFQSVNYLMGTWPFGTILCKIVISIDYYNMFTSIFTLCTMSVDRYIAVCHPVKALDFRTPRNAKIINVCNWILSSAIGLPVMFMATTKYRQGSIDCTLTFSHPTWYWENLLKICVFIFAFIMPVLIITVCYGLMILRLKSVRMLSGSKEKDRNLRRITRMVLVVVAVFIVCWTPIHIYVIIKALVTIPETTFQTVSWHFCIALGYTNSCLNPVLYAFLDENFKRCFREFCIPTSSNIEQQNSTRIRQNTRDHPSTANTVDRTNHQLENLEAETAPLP
T5 sequence (Q01196 whole entry, the tested form may be a part): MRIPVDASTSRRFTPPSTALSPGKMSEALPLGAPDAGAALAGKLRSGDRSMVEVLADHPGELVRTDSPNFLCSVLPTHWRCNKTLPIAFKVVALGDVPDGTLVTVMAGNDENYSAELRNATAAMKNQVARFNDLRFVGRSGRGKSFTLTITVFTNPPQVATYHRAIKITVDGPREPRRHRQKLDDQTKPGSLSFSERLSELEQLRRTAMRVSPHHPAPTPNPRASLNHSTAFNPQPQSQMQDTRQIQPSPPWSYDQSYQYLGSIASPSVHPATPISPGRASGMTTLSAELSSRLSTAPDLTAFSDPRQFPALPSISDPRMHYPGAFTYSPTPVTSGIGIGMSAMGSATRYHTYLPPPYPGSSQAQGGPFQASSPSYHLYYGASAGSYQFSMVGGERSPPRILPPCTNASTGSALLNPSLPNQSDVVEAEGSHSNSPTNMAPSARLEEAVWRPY
T5 sequence (Q13951 whole entry, the tested form may be a part): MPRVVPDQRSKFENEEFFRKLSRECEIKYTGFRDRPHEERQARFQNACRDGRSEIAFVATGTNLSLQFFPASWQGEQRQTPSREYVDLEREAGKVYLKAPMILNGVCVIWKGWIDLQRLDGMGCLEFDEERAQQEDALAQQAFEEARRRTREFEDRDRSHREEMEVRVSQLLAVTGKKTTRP
T4 sequence (P11940 whole entry, the tested form may be a part): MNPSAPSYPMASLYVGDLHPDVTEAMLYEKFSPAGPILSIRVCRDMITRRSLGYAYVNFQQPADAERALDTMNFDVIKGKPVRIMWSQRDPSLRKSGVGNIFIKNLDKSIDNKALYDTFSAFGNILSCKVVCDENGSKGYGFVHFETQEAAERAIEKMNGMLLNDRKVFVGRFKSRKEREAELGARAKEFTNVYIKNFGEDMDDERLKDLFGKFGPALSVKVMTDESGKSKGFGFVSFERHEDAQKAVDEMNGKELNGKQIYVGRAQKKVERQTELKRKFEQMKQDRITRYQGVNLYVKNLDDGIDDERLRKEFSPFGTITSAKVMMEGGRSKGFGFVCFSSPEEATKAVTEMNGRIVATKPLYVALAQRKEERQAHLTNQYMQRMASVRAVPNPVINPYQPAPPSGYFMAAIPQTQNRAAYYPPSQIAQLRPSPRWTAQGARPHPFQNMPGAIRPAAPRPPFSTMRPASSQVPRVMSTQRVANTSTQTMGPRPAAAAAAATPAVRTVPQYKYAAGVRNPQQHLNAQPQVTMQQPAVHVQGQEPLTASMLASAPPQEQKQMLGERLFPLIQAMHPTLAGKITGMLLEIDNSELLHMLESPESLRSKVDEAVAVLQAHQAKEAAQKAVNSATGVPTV
T8 sequence (P41143 whole entry): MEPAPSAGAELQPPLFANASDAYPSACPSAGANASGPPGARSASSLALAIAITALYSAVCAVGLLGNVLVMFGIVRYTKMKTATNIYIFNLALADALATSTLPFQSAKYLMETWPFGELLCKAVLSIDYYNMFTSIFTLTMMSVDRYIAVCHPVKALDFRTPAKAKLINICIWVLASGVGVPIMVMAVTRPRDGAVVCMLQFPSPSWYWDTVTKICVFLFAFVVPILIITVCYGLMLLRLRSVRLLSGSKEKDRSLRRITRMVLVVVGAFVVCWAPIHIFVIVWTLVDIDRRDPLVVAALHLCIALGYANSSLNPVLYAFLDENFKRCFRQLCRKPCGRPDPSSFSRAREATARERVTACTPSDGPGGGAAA
Cannabinoid receptor 1, sequence (P21554 whole entry): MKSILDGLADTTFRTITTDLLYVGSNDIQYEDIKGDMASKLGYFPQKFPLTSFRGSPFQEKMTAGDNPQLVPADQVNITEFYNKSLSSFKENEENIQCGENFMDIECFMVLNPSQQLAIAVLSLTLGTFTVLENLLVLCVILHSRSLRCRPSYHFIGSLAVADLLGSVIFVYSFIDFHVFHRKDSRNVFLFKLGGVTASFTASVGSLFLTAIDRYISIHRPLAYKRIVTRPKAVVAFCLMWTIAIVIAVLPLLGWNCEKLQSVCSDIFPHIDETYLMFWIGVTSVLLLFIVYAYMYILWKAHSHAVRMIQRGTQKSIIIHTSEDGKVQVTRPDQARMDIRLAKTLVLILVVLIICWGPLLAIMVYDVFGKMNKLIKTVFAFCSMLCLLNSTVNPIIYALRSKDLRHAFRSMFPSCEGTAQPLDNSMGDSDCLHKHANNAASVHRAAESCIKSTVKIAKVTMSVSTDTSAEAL
Dual specificity protein phosphatase 3, sequence (P51452 whole entry): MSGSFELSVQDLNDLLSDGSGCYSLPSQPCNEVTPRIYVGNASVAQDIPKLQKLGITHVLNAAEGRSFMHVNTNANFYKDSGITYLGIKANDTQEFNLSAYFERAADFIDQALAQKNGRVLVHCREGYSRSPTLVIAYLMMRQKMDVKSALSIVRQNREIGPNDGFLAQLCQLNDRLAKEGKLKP

COc1ccc(Cl)cc1-n1c(N)c(C(=O)N2CCOCC2)sc1=S
inactive: IC50 [1] > 100 µM

CC(C)NS(=O)(=O)c1ccc(NC(=S)NC(=O)c2ccc(-c3ccccc3)cc2)cc1
inactive: IC50 [3] > 32 µM | EC50 [4] > 32 µM | IC50 [5] > 100 µM | IC50 [7] > 32 µM | IC50 [8] > 100 µM | IC50 [9] > 66 µM | IC50 [10] > 66 µM
active: EC50 [2] 0.544 µM | EC50 [6] 0.354 µM

N#Cc1c(NCCN)nc(NCc2ccccc2)c2c1CCN(Cc1ccccc1)C2
> 20 µM (not active): EC50 [12] | EC50 [15]
active: IC50 [11] 4.57 µM | IC50 [13] 11.8 µM | IC50 [14] 47.8 µM

Cc1ccc(C)c(NC(S)=NC(NC(=O)OCc2ccccc2)C(Cl)(Cl)Cl)c1 (stereo not given)
active: IC50 [18] 1.53 µM | IC50 [22] 6.2 µM
inactive: EC50 [16] > 32 µM | EC50 [17] > 32 µM | IC50 [19] > 32 µM | EC50 [20] > 32 µM | IC50 [21] > 32 µM

O=C(Nc1nc(-c2cccs2)cs1)c1ccc([N+](=O)[O-])o1
inactive: IC50 [23] > 118 µM | IC50 [28] > 118 µM
active: CC50 [24] 9.67 µM | AC50 [25] 1.52 µM | CC50 [26] 9.45 µM | CC50 [27] > 20 µM | IC50 [29] 0.61 µM | AC50 [30] 2.32 µM

Cc1ccc2c(C)c3ccc4ccccc4c3c[n+]2c1.[O-][Cl+3]([O-])([O-])[O-]
active: EC50 [31] 14.2 µM | CC50 [32] 78.8 µM | IC50 [33] 48 µM | AC50 [34] 1.34 µM | AC50 [35] 1.06 µM
